# Experimental data: paper PMC7211195 (Investigational New Drugs, 2019)
# Values joined by “and” are separate entries in the source; they are usually repeats but may differ in a detail not shown here. Equal entries are not always repeated.
# Test: Lapatinib pharmacokinetics and uptake in rat brain tissue (BT);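 on BT corr (BT homogenate corrected), single rat: brain concentration corrected for residual brain blood by the Fridén method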;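 on BT corr (BT homogenate), single rat: brain concentration corrected for residual brain blood by the Fridén method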
# Assay type: in vivo, rats
# Conditions: for BT corr (BT homogenate), S / BT corr (BT homogenate), single rat: lapatinib 100 mg/kg + elacridar; for BT corr (BT homogenate corrected), single rat: lapatinib p.o. 100 mg/kg alone, 100 mg/kg
# Procedure: This study was conducted on rats, which are a promising model to predict P-gp-based drug-drug interactions at the human BBB [15]. The animals were allowed to acclimate for one week before the beginning of the experiments. Adult male Wistar-strain rats (weight 470–525 g) were used in the study. The animals were maintained under standard breeding conditions with a 12/12 h light-dark cycle (lights on at 6.00 a.m., lights off at 6.00 p.m.) at constant room temperature (23 ± 2 °C), relative humidity (55 ± 10%) and ad libitum access to food and water. The experimental protocol for this study was reviewed and approved by the Local Ethics Committee. To obtain consistent data, the study was based on the required minimum number of animals and observation time. […] Three rats were used at each time point (n = 3). In total, the research was conducted on 66 animals (n = 33 in the experimental group and n = 33 in the control group).
# Elacridar was freshly dissolved in a vehicle at an initial concentration of 20 mg/mL. […] A volume of 80 μL of blood was collected from each rat by cutting off a piece of its tail. The blood samples were collected into heparinized test tubes at the following time points: […], and they were immediately centrifuged at 2880 g for 10 min at 4 °C. The anaesthetized rats (anaesthetized by intramuscular administration of 50 mg/kg ketamine and 10 mg/kg xylazine) were prepared for cisterna magna puncture. The hair over the puncture was removed and the skin was disinfected with alcohol. The animals were placed in a recumbent position with an elevated rear part of the body. The animals’ heads were slightly flexed and immobilized with the operator’s left hand. The space between the occiput rostrally and the atlas (C1) of the spinal column caudally was gently palpated with the left thumb. A 0.7 × 20 G needle with polyethylene tubing (Terumo Poland, Warsaw, Poland) was gently inserted at an approximate angle of 80–90° through the skin with the operator’s right hand into the midsagittal region. The moment that dura mater perforation was perceptible, a small amount of CSF was found in the needle tubing. To sample additional CSF, a 1 mL insulin syringe (Becton Dickinson, Warsaw, Poland) was used to collect 80–120 μL of CSF by very gentle aspiration. Only clear CSF was collected for further analysis. […] The animals’ brains were immediately dissected, washed in 0.9% NaCl and divided along the longitudinal axis. One of the brain hemispheres was again rinsed three times with 5 mL of 0.9% NaCl, weighed and homogenized with 0.9% NaCl (4 mL per 1 g of BT) in an Ultra-Turrax homogenizer (Witko, Łódź, Poland). The homogenate was then centrifuged at 4500 g for 10 min. All samples of the rat BP, CSF, and BT homogenate supernatant were stored at −80 °C until analysis.
# The chromatographic analysis was conducted using a 1260 Infinity system (Agilent Technologies, Santa Clara, USA) equipped with a Kinetex® C18 column (50 × 4.6 mm, 2.6 μm, Phenomenex, Torrance, USA), which was maintained at 35 °C. The mobile phase consisted of 0.1% formic acid (v/v) in water with 5 mM ammonium formate (solvent A) and acetonitrile with 10% phase A (v/v, solvent B). The analyte and internal standard (IS, erlotinib) were eluted using a gradient run of 10 min as follows: 95% A at 0–2 min; 95%–5% A at 2–4 min; 5% A at 4–5 min; 5%–95% A at 5–6 min; 95% A at 6–10 min. The flow rate and injection volume were set at 0.7 mL/min and 10 μL, respectively. The needle was washed for 30 s in a mixture of acetonitrile, methanol, isopropanol, water, and formic acid (50:20:15:15:0.25, v/v/v/v/v).
smiles,measurement,setting,value
"CS(=O)(=O)CCNCc1ccc(-c2ccc3ncnc(Nc4ccc(OCc5cccc(F)c5)c(Cl)c4)c3c2)o1 [lapatinib, N-{3-Chloro-4-[(3-fluorobenzyl)oxy]phenyl}-6-[5-({[2-(methylsulfonyl)ethyl]amino}methyl)-2-furyl]-4-quinazolinamine]",AUC0-∞ increase by elacridar,BT,1.9 times
same,Cmax increase in IE+L vs control,BT,1.55 fold and 1.5 fold
same,Kp decrease in IL+E group vs control,BT,25%
same,t0.5 longer in the presence of elacridar,BT,2.5 times
same,AUC0-t increased in IE+L,"BT, IE+L vs IIL group",92.6%
same,AUC0-∞ increase with elacridar,"BT, IE+L vs IIL group",86.5%
same,Cmax increase with elacridar,"BT, IE+L vs IIL group",54.7%
same,AUMC0-t,"brain tissue, lapatinib 100 mg/kg oral + 5 mg/kg elacridar (IE+L), first AUMC0-t line (r32)","16,040.19 ± 2981.02 ng × h^2/mL"
same,AUMC0-t,"brain tissue, lapatinib 100 mg/kg oral + 5 mg/kg elacridar (IE+L), second AUMC0-t line (r33)","57,148.33 ± 29,162.29 ng × h^2/mL"
same,MRT0-t,"brain tissue, lapatinib 100 mg/kg oral alone (IIL)",5.73 ± 0.06 h
same,AUMC0-t,"brain tissue, lapatinib 100 mg/kg oral alone (IIL), first AUMC0-t line (r32)",4792.63 ± 173.92 ng × h^2/mL
same,AUMC0-t,"brain tissue, lapatinib 100 mg/kg oral alone (IIL), second AUMC0-t line (r33)","17,455.77 ± 17,542.73 ng × h^2/mL"
same,"BT corr (BT homogenate), S",0.25 h,33.08 ng/mL
same,"BT corr (BT homogenate), single rat",0.25 h,35.46 ng/mL
same,"BT corr (BT homogenate), single rat","0.25 h, listed as Lapatinib",35.46 ng/mL
same,"BT corr (BT homogenate), S",0.5 h,43.57 ng/mL
same,"BT corr (BT homogenate), single rat",0.5 h,41.98 ng/mL
same,"BT corr (BT homogenate), single rat","0.5 h, listed as Lapatinib",41.98 ng/mL
same,"BT corr (BT homogenate), single rat",2 h,39.78 ng/mL and 102.9 ng/mL
same,"BT corr (BT homogenate), single rat","2 h, listed as Lapatinib",39.78 ng/mL and 102.90 ng/mL
same,"BT corr (BT homogenate), S",3 h,197.6723 ng/mL
same,"BT corr (BT homogenate), single rat",3 h,170.09 ng/mL and 225.26 ng/mL
same,"BT corr (BT homogenate), single rat","3 h, listed as Lapatinib",225.26 ng/mL
same,"BT corr (BT homogenate), S",4 h,85.05 ng/mL
same,"BT corr (BT homogenate), single rat",4 h,91.94 ng/mL
same,"BT corr (BT homogenate), S",6 h,85.7722 ng/mL
same,"BT corr (BT homogenate), single rat",6 h,84.2 ng/mL
same,"BT corr (BT homogenate), single rat","6 h, listed as Lapatinib",84.20 ng/mL
same,"BT corr (BT homogenate), S",8 h,85.02 ng/mL
same,"BT corr (BT homogenate), single rat",12 h,45.12 ng/mL
same,"BT corr (BT homogenate), single rat","12 h, listed as Lapatinib",45.12 ng/mL
same,"BT corr (BT homogenate), S",24 h,44.69 ng/mL
same,"BT corr (BT homogenate), single rat",24 h,36.68 ng/mL
same,"BT corr (BT homogenate), single rat","24 h, listed as Lapatinib",36.68 ng/mL
same,"BT corr (BT homogenate corrected), single rat",0.25 h,33.26 ng/mL
same,"BT corr (BT homogenate corrected), single rat","0.25 h, listed as Lapatinib",33.26 ng/mL
same,"BT corr (BT homogenate corrected), single rat",0.5 h,39.02 ng/mL
same,"BT corr (BT homogenate corrected), single rat","0.5 h, listed as Lapatinib",39.02 ng/mL
